Test results as given in US10077237B2 (Sanofi, priority 2013, dated 2018).
Values joined by “and” are separate entries in the source; they are usually repeats but may differ in a detail not shown here. Equal entries are not always repeated. Structures can show the parent of a compound that is named as a salt.

Biological target: T1, recombinant human AMPK complex, containing α2β1γ2 (Homo sapiens, UniProt P54646+Q9Y478)
T1 construct: hsAMPKα2-552-His, hsAMPKβ1-2-270 and hsAMPKγ-2-569 respectively; hsAMPKβ1-2-270; hsAMPKγ-2-569; His (C); made in house; host or cells: Spodoptera frugiperda Sf21 (baculovirus)
Assay: AMPK in vitro activation assay (HTRF)
Format: biochemical
Conditions: for EC50: HTRF, recombinant human α2β1γ2 AMPK, 200 μM ATP, biotinylated ACC-CREBp peptide, repeat determinations on separate lines; for Emax: potentiation of AMPK activity as percent over the basal signal (without compound)
In short: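 HTRF phosphorylation read-out (Eu-cryptate anti-pS133-CREB, streptavidin-XL665) after a 45 min, 37° C kinase step. This step was initiated by a solution with 200 μM ATP and 2 or 0.08 μM biotinylated ACC-CREBp peptide. Beforehand, compound sat 30 min at room temperature with baculovirus/Sf21 α2β1γ2 in pH 7.0 HEPES buffer; EC50 derived from activation over basal.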

T1 sequence (P54646 2-552): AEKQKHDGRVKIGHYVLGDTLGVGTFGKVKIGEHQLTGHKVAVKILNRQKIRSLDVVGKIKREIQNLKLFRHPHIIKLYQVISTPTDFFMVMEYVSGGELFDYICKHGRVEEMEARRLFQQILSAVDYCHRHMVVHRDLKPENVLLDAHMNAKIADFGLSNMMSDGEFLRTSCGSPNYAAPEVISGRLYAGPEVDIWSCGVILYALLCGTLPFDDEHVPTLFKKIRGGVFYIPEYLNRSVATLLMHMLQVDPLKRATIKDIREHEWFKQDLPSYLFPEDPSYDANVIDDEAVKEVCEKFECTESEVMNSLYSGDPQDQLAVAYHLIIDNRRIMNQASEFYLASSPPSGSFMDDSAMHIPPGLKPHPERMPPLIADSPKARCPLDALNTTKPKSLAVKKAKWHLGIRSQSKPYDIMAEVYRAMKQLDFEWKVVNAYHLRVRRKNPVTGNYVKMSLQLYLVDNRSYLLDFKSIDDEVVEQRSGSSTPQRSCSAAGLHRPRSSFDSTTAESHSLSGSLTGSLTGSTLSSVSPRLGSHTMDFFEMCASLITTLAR
T1 sequence (Q9Y478 2-270): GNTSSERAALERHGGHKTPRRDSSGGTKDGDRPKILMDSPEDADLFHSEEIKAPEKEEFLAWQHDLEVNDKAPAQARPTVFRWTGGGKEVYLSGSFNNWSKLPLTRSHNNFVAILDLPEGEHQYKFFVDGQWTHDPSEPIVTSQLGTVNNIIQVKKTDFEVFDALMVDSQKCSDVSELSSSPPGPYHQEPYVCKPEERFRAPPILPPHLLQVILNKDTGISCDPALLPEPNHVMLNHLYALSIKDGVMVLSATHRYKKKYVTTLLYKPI
T1 sequence (Q9UGJ0 2-569 partner limits assumed): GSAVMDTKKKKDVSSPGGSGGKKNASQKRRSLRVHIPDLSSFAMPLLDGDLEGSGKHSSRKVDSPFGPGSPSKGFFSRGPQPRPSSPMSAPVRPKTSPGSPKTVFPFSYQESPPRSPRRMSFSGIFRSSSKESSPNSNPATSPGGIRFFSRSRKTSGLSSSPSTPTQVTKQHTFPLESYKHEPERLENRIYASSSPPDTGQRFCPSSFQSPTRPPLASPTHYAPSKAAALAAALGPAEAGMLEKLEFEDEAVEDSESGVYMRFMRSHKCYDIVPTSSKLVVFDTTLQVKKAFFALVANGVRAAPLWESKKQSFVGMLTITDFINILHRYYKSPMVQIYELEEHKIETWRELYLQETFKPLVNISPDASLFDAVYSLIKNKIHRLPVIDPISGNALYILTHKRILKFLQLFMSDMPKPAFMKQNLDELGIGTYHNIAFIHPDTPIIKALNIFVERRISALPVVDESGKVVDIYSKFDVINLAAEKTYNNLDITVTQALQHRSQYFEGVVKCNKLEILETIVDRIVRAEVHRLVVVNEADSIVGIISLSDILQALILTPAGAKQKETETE

Row | Structure (SMILES) | EC50 | Emax
1 | O=C1Nc2cc(Cl)c(-c3ccc(N4CCOCC4)cc3)cc2C1=C(O)c1cccc(Cl)c1 [Compound 34, 6-Chloro-3-[1-(3-chloro-phenyl)-1-hydroxy-methylidene]-5-(4-morpholin-4-yl-phenyl)-1,3-dihydro-indol-2-one] | 630 nM | 156%
2 | COc1cc(C(O)=C2C(=O)Nc3cc(Cl)c(-c4ccc(OCc5cccnc5)cc4)cc32)on1 [Compound 100, 6-chloro-3-[hydroxy-(3-methoxyisoxazol-5-yl)methylene]-5-[4-(3-pyridylmethoxy)phenyl]indolin-2-one] | 36 nM | 159%
3 | Cc1cc(C(O)=C2C(=O)Nc3cc(Cl)c(-c4ccc(C5(CO)CC5)cc4F)cc32)on1 [Compound 85, 6-chloro-5-[2-fluoro-4-[1-(hydroxymethyl)cyclopropyl]phenyl]-3-[hydroxy-(3-methylisoxazol-5-yl)methylene]indolin-2-one] | 1 nM | 151%
4 | COc1cc(C(O)=C2C(=O)Nc3cc(Cl)c(-c4ccc(C5CCNC5)cc4)cc32)on1 (stereo not drawn) [Compound 134, 6-chloro-3-[hydroxy-(3-methoxyisoxazol-5-yl)methylene]-5-(4-pyrrolidin-3-ylphenyl)indolin-2-one hydrochloride] | 9 nM | 394%
5 | Cc1cc(C(O)=C2C(=O)Nc3cc(Cl)c(-c4ccc(C5CCN(C)CC5)cc4)cc32)on1 [Compound 78, 6-Chloro-3-[1-hydroxy-1-(3-methyl-isoxazol-5-yl)methylidene]-5-[4-(1-methyl-piperidin-4-yl)phenyl]-1,3-dihydro-indol-2-one, hydrochloride] | 7 nM | 141%
6 | O=C1Nc2cc(Cl)c(-c3ccc(C4(CO)CC4)cc3)cc2C1=C(O)c1cc2ccccc2o1 [Compound 168, 3-[benzofuran-2-yl(hydroxy)methylene]6-chloro-5-[4-[1-(hydroxymethyl)cyclopropyl]phenyl]indolin-2-one] | 0.3 nM | 173%
7 | O=C1Nc2cc(Cl)c(-c3ccc(N4CCOCC4)cc3)cc2C1=C(O)c1ccc(F)cc1 [Compound 36, 6-Chloro-3-[1-(4-fluoro-phenyl)-1-hydroxy-methylidene]-5-(4-morpholin-4-yl-phenyl)-1,3-dihydro-indol-2-one] | 380 nM | 153%
8 | COc1cc(C(O)=C2C(=O)Nc3cc(Cl)c(-c4ccc(C(O)CO)cc4)cc32)on1 (stereo not drawn) [Compound 122, 6-chloro-5-[4-(1,2-dihydroxyethyl)phenyl]-3-[hydroxy-(3-methoxyisoxazol-5-yl)methylene]indolin-2-one] | 7 nM | 172%
9 | O=C1Nc2cc(Cl)c(-c3ccc(N4CCOCC4)cc3)cc2C1=C(O)c1cccc(C(F)F)c1 [Compound 39, 6-Chloro-3-[1-(3-difluoromethyl-phenyl)-1-hydroxy-methylidene]-5-(4-morpholin-4-yl-phenyl)-1,3-dihydro-indol-2-one] | 620 nM | 168%
10 | O=C1Nc2cc(Cl)c(-c3ccc(C4(CO)CC4)cc3)cc2C1=C(O)c1cccc(F)c1 [Compound 27, 6-Chloro-3-[1-(3-fluoro-phenyl)-1-hydroxy-methylidene]-5-[4-(1-hydroxymethyl-cyclopropyl)-phenyl]-1,3-dihydro-indol-2-one] | 2 nM | 129%
11 | O=C1Nc2cc(Cl)c(-c3ccc(C4=CCOCC4)cc3)cc2C1=C(O)c1cccc(F)c1 [Compound 52, 6-Chloro-5-[4-(3,6-dihydro-2H-pyran-4-yl)-phenyl]-3-[1-(3-fluoro-phenyl)-1-hydroxy-methylidene]-1,3-dihydro-indol-2-one] | 120 nM | 147%
12 | COc1cc(C(O)=C2C(=O)Nc3cc(Cl)c(-c4ccc(OCCCN(C)C)cc4)cc32)on1 [Compound 173, 6-chloro-5-[4-[3-(dimethylamino)propoxy]phenyl]-3-[hydroxy-(3-methoxyisoxazol-5-yl)methylene]indolin-2-one] | 1 nM | 181%
13 | COc1cc(C(O)=C2C(=O)Nc3cc(Cl)c(-c4cnc(N(C)C)nc4)cc32)on1 [Compound 145, 6-chloro-5-[2-(dimethylamino)pyrimidin-5-yl]-3-[hydroxy-(3-methoxyisoxazol-5-yl)methylene]indolin-2-one] | 95 nM | 257%
14 | Cc1cc(C(O)=C2C(=O)Nc3cc(Cl)c(-c4ccc(N5CCOCC5)cc4)cc32)sn1 [Compound 13, 6-Chloro-3-[1-hydroxy-1-(3-methyl-isothiazol-5-yl)-methylidene]-5-(4-morpholin-4-yl-phenyl)-1,3-dihydro-indol-2-one] | 12 nM and 5 nM | –
15 | COc1cnccc1C(O)=C1C(=O)Nc2cc(Cl)c(-c3ccc(C4(CO)CC4)cc3)cc21 [Compound 175, 6-chloro-3-[hydroxy-(3-methoxy-4-pyridyl)methylene]-5-[4-[1-(hydroxymethyl)cyclopropyl]phenyl]indolin-2-one] | 2 nM | 198%
16 | CC(C)(C)c1cc(C(O)=C2C(=O)Nc3cc(Cl)c(-c4ccc(C5CC(O)C5)cc4)cc32)on1 (stereo not drawn) [Compound 164, 3-[(3-tert-butylisoxazol-5-yl)-hydroxy-methylene]6-chloro-5-[4-(3-hydroxycyclobutyl)phenyl]indolin-2-one] | 11 nM | 194%
17 | O=C1Nc2cc(F)c(-c3ccc(C4(CO)CC4)cc3)c(F)c2C1=C(O)c1cc(C2CC2)no1 [Compound 120, 3-[(3-cyclopropylisoxazol-5-yl)hydroxy-methylene]-4,6-difluoro-5-[4-[1-(hydroxymethyl)cyclopropyl]phenyl]indolin-2-one] | 0.2 nM | 169%
18 | COc1cc(C(O)=C2C(=O)Nc3cc(Cl)c(-c4ccc(C5CCN(C)C5)cc4)cc32)on1 (stereo not drawn) [Compound 133, 6-chloro-3-[hydroxy-(3-methoxyisoxazol-5-yl)methylene]-5-[4-(1-methylpyrrolidin-3-yl)phenyl]indolin-2-one hydrochloride] | 14 nM | 397%
19 | COc1cc(F)c(C(O)=C2C(=O)Nc3cc(Cl)c(-c4ccc(C5CC(O)C5)cc4)cc32)cc1F (stereo not drawn) [Compound 159, 6-chloro-3-[(2,5-difluoro-4-methoxy-phenyl)hydroxy-methylene]-5-[4-(3-hydroxycyclobutyl)phenyl]indolin-2-one] | 10 nM | 180%
20 | O=C1Nc2cc(Cl)c(-c3ccc(N4CCOCC4)cc3)cc2C1=C(O)c1cc(C2CCCCC2)no1 [Compound 86, 6-chloro-3-[(3-cyclohexylisoxazol-5-yl)hydroxy-methylene]-5-(4-morpholinophenyl)indolin-2-one] | 61 nM | 155%
21 | Cc1cc(C(O)=C2C(=O)Nc3cc(Cl)c(-c4ccc(OCCCO)cc4)cc32)on1 [Compound 91, 6-chloro-3-[hydroxy-(3-methylisoxazol-5-yl)methylene]-5-[4-(3-hydroxypropoxy)phenyl]indolin-2-one] | 4 nM | 185%
22 | CC(C)(C)c1cc(C(O)=C2C(=O)Nc3cc(Cl)c(-c4ccc(C5(CO)CC5)cc4)cc32)on1 [Compound 76, 3-[1-(3-tert-Butyl-isoxazol-5-yl)-1-hydroxy-methylidene]-6-chloro-5-[4-(1-hydroxymethyl-cyclopropyl)phenyl]-1,3-dihydro-indol-2-one] | 2 nM | 124%
23 | COc1ccc(C(O)=C2C(=O)Nc3cc(Cl)c(-c4ccc(N5CCOCC5)cc4)cc32)cc1F [Compound 77, 6-Chloro-3-[1-(3-fluoro-4-methoxy-phenyl)-1-hydroxy-methylidene]-5-(4-morpholin-4-yl-phenyl)-1,3-dihydro-indol-2-one] | 0.5 nM | 128%
24 | Cc1cc(C(O)=C2C(=O)Nc3cc(Cl)c(-c4ccc(-c5ccncc5)cc4)cc32)on1 [Compound 35, 6-Chloro-3-[1-hydroxy-1-(3-methyl-isoxazol-5-yl)-methylidene]-5-(4-pyridin-4-yl-phenyl)-1,3-dihydro-indol-2-one, hydrochloride] | 23 nM | 151%
25 | O=C1Nc2cc(Cl)c(-c3ccc(C4CC(O)C4)cc3)cc2C1=C(O)c1cc(C2CC2)no1 (stereo not drawn) [Compound 174, 6-chloro-3-[(3-cyclopropylisoxazol-5-yl)hydroxy-methylene]-5-[4-(3-hydroxycyclobutyl)phenyl]indolin-2-one] | 1 nM | 185%
26 | COc1ccc(C(O)=C2C(=O)Nc3cc(Cl)c(-c4ccc(N5CCOCC5)cc4)cc32)cn1 [Compound 151, 6-chloro-3-[hydroxy-(6-methoxy-3-pyridyl)methylene]-5-(4-morpholinophenyl)indolin-2-one] | 6 nM | 161%
27 | COc1cc(C(O)=C2C(=O)Nc3cc(Cl)c(-c4ccc(N(C)C)nc4)cc32)on1 [Compound 146, 6-chloro-5-[6-(dimethylamino)-3-pyridyl]-3-[hydroxy-(3-methoxyisoxazol-5-yl)methylene]indolin-2-one] | 88 nM | 278%
28 | COCCOc1ccc(-c2cc3c(cc2Cl)NC(=O)C3=C(O)c2cc(C)no2)cc1 [Compound 103, 6-chloro-3-[hydroxy-(3-methylisoxazol-5-yl)methylene]-5-[4-(2-methoxyethoxy)phenyl]indolin-2-one] | 16 nM | 114%
29 | COc1cc(C(O)=C2C(=O)Nc3cc(Cl)c(-c4ccc(C5(CO)CC5)cc4)cc32)ccn1 [Compound 158, 6-chloro-3-[hydroxy-(2-methoxy-4-pyridyl)methylene]-5-[4-[1-(hydroxymethyl)cyclopropyl]phenyl]indolin-2-one] | 0.5 nM | 130%
